Consider 7 molecules from publication PMC7340254, “Structure-based screening of binding affinities via small-angle X-ray scattering” (IUCrJ, 2020).

Test [1] deals with T1, aspartate/glutamate-binding protein (DEBP) (Escherichia coli, UniProt P37902).
T1 construct: made in house; host or cells: E. coli BL21(DE3)
The experiment in a line: SAXS-based ligand titration. Details: species or system E. coli. The text has this:
Their preliminary results have been excluded from this report.

The target in another test is DEBP. Details: method as in Clifton & Jackson (2016). The conditions noted are these: ref Clifton & Jackson (2016), read-out: K D (ITC, literature); cited from earlier work.
A further test deals with GlnBP. Details: method as in Clifton & Jackson (2016). To be noted: ref Clifton & Jackson (2016), read-out: K D (ITC, literature); cited from earlier work.
For the next test, the target named is HisBP. Details: method as in Paul et al. (2016). The conditions noted are these: ref Paul et al. (2016), read-out: K D (ITC, literature); cited from earlier work.
The target in test [2] is T2, histidine-binding protein (HisBP) (Escherichia coli, UniProt P0AEU0). To be noted: His:HisBP.
Experimental: (§1) Titrations were conducted at fixed protein concentrations to exclude signal-to-noise factors. An initial mass concentration of 2.0 or 4.0 mg ml^−1 was employed in prospective experiments, then scaled to 2.0, 1.0, 0.5 and 0.25 mg ml^−1 in later concentration-variation studies. […] A total of eight beamline experiments were conducted, using the automated sample changing environments available on site, operated in constant-flow mode: three times at ESRF BM29, three at DESY P12, once at Australian Synchrotron SAXS/WAXS and once at Diamond B21. […] Furthermore, experiments at ESRF BM29 and Diamond B21 were carried out on site, while the DESY P12 experiment was carried out by mail-in. For these measurements, samples were prepared by pipetting ligand–protein mixtures onto 96-well plates prior to transport. As for the Australian Synchrotron measurements, apo–HisBP was lyophilized in its final buffer and reconstituted on site using pure H2O and then mixed with the ligands in 96-well plates.
(§2) Buffer-subtracted intensities provided from respective synchrotron pipelines were used as starting points for analysis. […] Thus, an intermediate value of 7.2 nm was fixed for all computations involving D max including V R.
(§3) This was used to assist in locating data points affected by sample handling errors or measurement failures, along with detectable aggregation. The ideal minimum angle after removal of parasitic scattering is 0.1–0.15 nm^−1, although a more conservative cutoff was used to collectively eliminate residual aggregation. The maximum usable q was determined by visual inspection of noise. The final ranges used across all HisBP beamline sessions were: 0.2–2.0 nm^−1 at 20 µM and below, 0.25–2.5 nm^−1 at 40 µM, and 0.3–3 nm^−1 above 80 µM. The q-ranges for DEBP and GlnBP were set to 0.1–2.8 nm^−1.
(§4) A common scattering reference is created per HisBP concentration and per beamline experiment by averaging apo protein replicates after discarding outliers. This reference is used for both V R and χlin computations.
(§5) To fit binding curves against metrics, we consider all titrations conducted per protein concentration per beamline experiment as a single set, after removing data points resulting from aggregation, preparation errors or measurement errors. […] Since the two-state binding curve at constant [R] cannot effectively discriminate between K D values much larger or smaller than [R], fitted K D values are limited to within four orders of magnitude of the receptor concentration (cf. Fig. S1). […] Error bars indicate σ of logK D from the ensemble of replicate predictions. For metrics where uncertainty was not computed (V R and V P), the uncertainty was estimated by single-point removal, where K D was recomputed after removal of each titration point. The σ of the resulting replicates are taken as the σ of logK D. To eliminate cases where the fitting process fails due to ill-constrained parameters, replicates were discarded if the fitted apo–holo differences were >3σ from the mean value of all replicates.
Test [3] concerns the target T2, histidine-binding protein (HisBP). Description: biochemical.
Experimental: All ITC measurements were conducted on a Malvern MicroCal PEAQ ITC at 20°C with stirring at 200 rev min^−1 using the same buffer as in SAXS measurements. The cell was initially loaded with 200 µl of 20 µM protein with an initial ligand concentration of 200 µM in the syringe to quantify His:HisBP binding. This was further adjusted in subsequent runs to resolve weaker interactions as necessary.
Test [4] has the same target. The experiment in a line: biochemical. This is another data set of the same source.
Experimental: as §1, §2, §3, §4, §5
[5] abbreviates: K D fitted to SAXS V R titration curves, AustSynch, 20s exposure, […] 10^13 photons, HisBP 19 µM.
[6] abbreviates: K D fitted to SAXS V R titration curves, AustSynch, 20s exposure, […] 10^13 photons, HisBP […] µM.
The mark [7] stands for this setting: K D fitted to SAXS V R titration curves, AustSynch, 20s exposure, […] 10^13 photons, HisBP 76 µM.
The mark [8] stands for this setting: K D fitted to SAXS V R titration curves, DESY, 4s exposure, […] 10^13 photons, HisBP 10 µM.
Setting [9] is: K D fitted to SAXS V R titration curves, DESY, 4s exposure, […] 10^13 photons, HisBP 20 µM.
[10] abbreviates: K D fitted to SAXS V R titration curves, DESY, 4s exposure, […] 10^13 photons, HisBP 40 µM.
Setting [11] is: K D fitted to SAXS V R titration curves, DESY, 4s exposure, […] 10^13 photons, HisBP 80 µM.
[12] abbreviates: K D fitted to SAXS V R titration curves, Diamond, 40s exposure, […] 10^14 photons, HisBP 10 µM.
The mark [13] stands for this setting: K D fitted to SAXS V R titration curves, Diamond, 40s exposure, […] 10^14 photons, HisBP 20 µM.
[14] abbreviates: K D fitted to SAXS V R titration curves, Diamond, 40s exposure, […] 10^14 photons, HisBP 40 µM.
Setting [15] is: K D fitted to SAXS V R titration curves, Diamond, 40s exposure, […] 10^14 photons, HisBP 80 µM.
[16] abbreviates: K D fitted to SAXS V R titration curves, ESRF, 5s exposure, 3.0 × 10^12 photons, HisBP 160 µM.
Where [17] appears, read: KD fitted to SAXS Rg curves, AustSynch, 20s exposure, HisBP […] µM.
Setting [18] is: KD fitted to SAXS Rg curves, AustSynch, 20s exposure, HisBP 76 µM.
Setting [19] is: KD fitted to SAXS Rg curves, DESY, 4s exposure, HisBP 10 µM.
Where [20] appears, read: KD fitted to SAXS Rg curves, DESY, 4s exposure, HisBP 20 µM.
Where [21] appears, read: KD fitted to SAXS Rg curves, DESY, 4s exposure, HisBP 40 µM.
[22] abbreviates: KD fitted to SAXS Rg curves, DESY, 4s exposure, HisBP 80 µM.
Where [23] appears, read: KD fitted to SAXS Rg curves, ESRF, 5s exposure, HisBP 160 µM.
[24] abbreviates: KD fitted to SAXS Vc curves, AustSynch, 20s exposure, HisBP […] µM.
Where [25] appears, read: KD fitted to SAXS Vc curves, AustSynch, 20s exposure, HisBP 76 µM.
Where [26] appears, read: KD fitted to SAXS Vc curves, DESY, 4s exposure, HisBP 40 µM.
Where [27] appears, read: KD fitted to SAXS Vc curves, DESY, 4s exposure, HisBP 80 µM.
Setting [28] is: KD fitted to SAXS Vc curves, ESRF, 5s exposure, HisBP 160 µM.
The mark [29] stands for this setting: KD fitted to SAXS χlin. curves, AustSynch, 20s exposure, HisBP […] µM.
Where [30] appears, read: KD fitted to SAXS χlin. curves, AustSynch, 20s exposure, HisBP 76 µM.
The mark [31] stands for this setting: KD fitted to SAXS χlin. curves, DESY, 4s exposure, HisBP 10 µM.
Where [32] appears, read: KD fitted to SAXS χlin. curves, DESY, 4s exposure, HisBP 20 µM.
Where [33] appears, read: KD fitted to SAXS χlin. curves, DESY, 4s exposure, HisBP 40 µM.
[34] abbreviates: KD fitted to SAXS χlin. curves, DESY, 4s exposure, HisBP 80 µM.
[35] abbreviates: KD fitted to SAXS χlin. curves, Diamond, 40s exposure, HisBP 40 µM.
Setting [36] is: KD fitted to SAXS χlin. curves, Diamond, 40s exposure, HisBP 80 µM.
The mark [37] stands for this setting: KD fitted to SAXS χlin. curves, ESRF, 5s exposure, HisBP 152 µM.

Like-named read-outs stand apart in the source and are kept apart here.

T2 sequence (P0AEU0 23-260): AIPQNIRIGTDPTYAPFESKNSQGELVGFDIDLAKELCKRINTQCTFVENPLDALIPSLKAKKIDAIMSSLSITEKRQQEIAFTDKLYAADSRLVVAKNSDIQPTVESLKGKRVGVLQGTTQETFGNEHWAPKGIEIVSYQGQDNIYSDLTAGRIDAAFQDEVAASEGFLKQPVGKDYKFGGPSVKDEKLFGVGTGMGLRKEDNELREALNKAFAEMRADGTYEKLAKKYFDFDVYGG
T1 sequence (P37902 28-302): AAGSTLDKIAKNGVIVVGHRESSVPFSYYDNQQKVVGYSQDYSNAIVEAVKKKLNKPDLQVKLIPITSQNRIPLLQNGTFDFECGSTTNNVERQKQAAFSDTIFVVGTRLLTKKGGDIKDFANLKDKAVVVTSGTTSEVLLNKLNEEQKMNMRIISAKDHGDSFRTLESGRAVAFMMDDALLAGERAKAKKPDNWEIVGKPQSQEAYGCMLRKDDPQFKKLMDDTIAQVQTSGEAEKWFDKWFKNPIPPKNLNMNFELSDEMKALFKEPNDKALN

Regarding `NC(=O)C[C@H](N)C(=O)O` [Asn], the “binding suggested by SAXS titrations” value in test [1] (DEBP, 2 mg ml^−1, 10^12 photons) was “unexpected binding”.
As for `N[C@@H](CC(=O)O)C(=O)O` [Asp, aspartate], on DEBP, the Kd was 1.73 ± 0.49 µM.
For `NC(=O)CC[C@H](N)C(=O)O` [Gln, glutamine], the Kd at GlnBP was 0.106 ± 0.065 µM.
As for `N[C@@H](CCC(=O)O)C(=O)O` [Glu, glutamate], the “SAXS R g Exp. (saturated)” value in test [1] (Glu:DEBP, ligand-excess conditions) was found to be 20.6 ± 1.3 Å. Further, in test [1] (Glu:DEBP, saturated versus apo), the “SAXS ΔR g” value was −2.6 Å. On DEBP, the Kd was 0.334 ± 0.12 µM.
As for `N[C@@H](Cc1c[nH]cn1)C(=O)O` [His, histidine], the Kd at HisBP was 0.064 ± 0.01 µM; in test [3], 0.048 ± 0.0052 µM; in test [4] (setting [5]), 0.062 ± 0.028 µM; in test [4] (setting [6]), 1.5 ± 0.7 µM; in test [4] (setting [7]), 3.6 ± 0.74 µM; in test [4] (setting [8]) it was 84 ± 68 µM. Besides, the Kd in test [4] (setting [9]) is 1 ± 0.19 µM; in test [4] (setting [10]), 3.7 ± 0.58 µM; in test [4] (setting [11]), 6.4 ± 1.1 µM; in test [4] (setting [12]), 0.0014 ± 0.00092 µM; in test [4] (setting [13]), 0.0051 ± 0.0041 µM; in test [4] (setting [14]), 0.013 ± 0.011 µM. Further, the Kd in test [4] (setting [15]) is 1.3 ± 0.5 µM; in test [4] (K D fitted to SAXS V R titration curves, ESRF, 5s exposure, 3.0 × 10^12 photons, HisBP […] µM) it was 0.24 ± 0.14 µM; in test [4] (setting [16]), 0.37 ± 0.47 µM; in test [4] (setting [17]), 6.3 ± 0.87 µM; in test [4] (setting [18]), 1.7 ± 0.87 µM; in test [4] (setting [19]) it was 100 ± 140 µM. Further, the Kd in test [4] (setting [20]) was 0.0027 ± 0.0047 µM; in test [4] (setting [21]), 4.2 ± 2.4 µM; in test [4] (setting [22]) it was 8.2 ± 1.8 µM; in test [4] (KD fitted to SAXS Rg curves, Diamond, 40s exposure, HisBP 10 µM), 0.018 µM; in test [4] (KD fitted to SAXS Rg curves, Diamond, 40s exposure, HisBP 20 µM), 0.015 µM; in test [4] (KD fitted to SAXS Rg curves, Diamond, 40s exposure, HisBP 80 µM), 2.2 ± 3.1 µM. Also, the Kd in test [4] (KD fitted to SAXS Rg curves, ESRF, 5s exposure, HisBP […] µM) was 0.16 µM; in test [4] (setting [23]), 0.61 ± 0.12 µM; in test [4] (KD fitted to SAXS Vc curves, AustSynch, 20s exposure, HisBP 19 µM) it was 0.16 µM; in test [4] (setting [24]), 5.3 ± 3.7 µM; in test [4] (setting [25]), 25 ± 8.1 µM; in test [4] (setting [26]), 19 µM. Moreover, the Kd in test [4] (setting [27]) amounted to 5.8 µM; in test [4] (KD fitted to SAXS Vc curves, Diamond, 40s exposure, HisBP 80 µM), 9.9 µM; in test [4] (KD fitted to SAXS Vc curves, ESRF, 5s exposure, HisBP 7.6 µM), 2.8 µM; in test [4] (KD fitted to SAXS Vc curves, ESRF, 5s exposure, HisBP […] µM), 200 ± 490 µM; in test [4] (setting [28]), 0.88 ± 2.4 µM; in test [4] (KD fitted to SAXS χlin. curves, AustSynch, 20s exposure, HisBP 19 µM), 1.2 µM. For the same molecule, the Kd in test [4] (setting [29]) came out at 4.5 ± 1.5 µM; in test [4] (setting [30]), 5.1 ± 0.75 µM; in test [4] (setting [31]), 4.4 ± 2.8 µM; in test [4] (setting [32]), 2.9 ± 1.5 µM; in test [4] (setting [33]), 13 ± 3.5 µM; in test [4] (setting [34]), 15 ± 1.9 µM. The Kd in test [4] (KD fitted to SAXS χlin. curves, Diamond, 40s exposure, HisBP 20 µM) was 0.07 µM; in test [4] (setting [35]), 4.3 ± 4.7 µM; in test [4] (setting [36]), 20 ± 3.4 µM; in test [4] (KD fitted to SAXS χlin. curves, ESRF, 5s exposure, HisBP 7.6 µM) it was 0.5 µM; in test [4] (KD fitted to SAXS χlin. curves, ESRF, 5s exposure, HisBP […] µM), 0.099 µM; in test [4] (setting [37]) it was 0.32 ± 0.051 µM. Further, in test [2] (ligand-excess conditions), the “SAXS R g Exp. (saturated)” value amounted to 18.3 ± 1.0 Å. For the same molecule, the “SAXS ΔR g” value in test [2] (saturated versus apo) was −1.3 Å.
With `NCCCC[C@H](N)C(=O)O` [Lys, lysine], the Kd at HisBP is 19.5 ± 6 µM; in test [3] it was 62 ± 11 µM; in test [4] (setting [5]), 110 ± 10 µM; in test [4] (setting [6]), 32 ± 4.6 µM; in test [4] (setting [7]), 95 ± 11 µM; in test [4] (setting [8]) it was 0.0023 ± 0.0016 µM. The Kd in test [4] (setting [9]) worked out at 61 ± 6.4 µM; in test [4] (setting [10]), 720 ± 350 µM; in test [4] (setting [11]) it was 58 ± 7.5 µM; in test [4] (setting [12]) it was 230 ± 200 µM; in test [4] (setting [13]) it was 47 ± 3.6 µM; in test [4] (setting [14]), 320 ± 210 µM. Besides, the Kd amounted to 89 ± 9.6 µM in test [4] (setting [15]); 49 ± 4.1 µM in test [4] (setting [16]); 460 ± 230 µM in test [4] (KD fitted to SAXS Rg curves, AustSynch, 20s exposure, HisBP 19 µM); 340 ± 120 µM in test [4] (setting [17]); 0.031 ± 0.025 µM in test [4] (setting [18]); 1.3 ± 2.5 µM in test [4] (setting [19]). Besides, the Kd in test [4] (setting [20]) was found to be 38 ± 28 µM; in test [4] (setting [21]) it was 0.086 µM; in test [4] (setting [22]) it was 36 ± 42 µM; in test [4] (KD fitted to SAXS Rg curves, Diamond, 40s exposure, HisBP 40 µM) it was 1500 ± 3200 µM; in test [4] (setting [23]), 71 ± 8.9 µM; in test [4] (setting [24]), 450 ± 510 µM. Moreover, the Kd stood at 9.5 µM in test [4] (setting [25]); 0.18 µM in test [4] (KD fitted to SAXS Vc curves, DESY, 4s exposure, HisBP 10 µM); 44 µM in test [4] (KD fitted to SAXS Vc curves, DESY, 4s exposure, HisBP 20 µM); 2.8 µM in test [4] (setting [26]); 9 µM in test [4] (setting [27]); 57 µM in test [4] (KD fitted to SAXS Vc curves, Diamond, 40s exposure, HisBP 40 µM). Further, the Kd in test [4] (setting [28]) amounted to 280 ± 450 µM; in test [4] (setting [29]), 150 ± 46 µM; in test [4] (setting [30]), 130 ± 14 µM; in test [4] (setting [31]), 0.46 ± 0.5 µM; in test [4] (setting [32]) it was 2.1 ± 3.2 µM; in test [4] (setting [33]) it was 160 ± 230 µM. In addition, the Kd was determined as 150 ± 40 µM in test [4] (setting [34]), 4500 ± 3400 µM in test [4] (setting [35]), 260 ± 150 µM in test [4] (setting [36]) and 180 ± 15 µM in test [4] (setting [37]).
Turning to `NCCC[C@H](N)C(=O)O` [Orn, ornithine], the Kd on HisBP was 72 ± 4 µM.
